In patent US9388174B2, “Azole benzene derivative” (TEIJIN PHARMA LIMITED, priority 2013, dated 2016):

These molecules were tested against T1, oxidase-type xanthine oxidoreductase (from buttermilk) (Bos taurus, UniProt P80457) (assay: xanthine oxidase inhibitory activity (change of absorbance at 290 nm)). Conditions: xanthine substrate, read-out: Inhibitor Activity.
T1 construct: purchased Calbiochem Novabiochem Corp; host or cells: buttermilk (natural source)
Format: biochemical
Method: Test compound was dissolved in DMSO (manufactured by Sigma Co.) to prepare a 20 mM solution. The solution was adjusted to an optimal concentration and used for the testing.
This evaluation was carried out by measuring oxidase-type xanthine oxidoreductase activity. Concretely, a xanthine (manufactured by Sigma Co.) solution was prepared at 10 mM using a 20 mM sodium hydroxide solution and then mixed with 100 mM phosphate buffer to adjusted to 30 μM. 75 μL of the solution was added to each well of the 96-well plate. The test compound diluted with DMSO at 100 times of a final concentration was added to each well at 1.5 μL per well. […] Immediately after mixing, the change of absorbance at 290 nm was measured for 5 minutes. The enzyme activity of DMSO solution without test compound was used as 100% control, and the inhibitory rate of the test compounds was calculated. Fifty percent inhibitory concentration of the test compounds on the oxidase-type xanthine oxidoreductase activity was calculated by fitting to the dose-response curve.

T1 sequence (P80457 whole entry): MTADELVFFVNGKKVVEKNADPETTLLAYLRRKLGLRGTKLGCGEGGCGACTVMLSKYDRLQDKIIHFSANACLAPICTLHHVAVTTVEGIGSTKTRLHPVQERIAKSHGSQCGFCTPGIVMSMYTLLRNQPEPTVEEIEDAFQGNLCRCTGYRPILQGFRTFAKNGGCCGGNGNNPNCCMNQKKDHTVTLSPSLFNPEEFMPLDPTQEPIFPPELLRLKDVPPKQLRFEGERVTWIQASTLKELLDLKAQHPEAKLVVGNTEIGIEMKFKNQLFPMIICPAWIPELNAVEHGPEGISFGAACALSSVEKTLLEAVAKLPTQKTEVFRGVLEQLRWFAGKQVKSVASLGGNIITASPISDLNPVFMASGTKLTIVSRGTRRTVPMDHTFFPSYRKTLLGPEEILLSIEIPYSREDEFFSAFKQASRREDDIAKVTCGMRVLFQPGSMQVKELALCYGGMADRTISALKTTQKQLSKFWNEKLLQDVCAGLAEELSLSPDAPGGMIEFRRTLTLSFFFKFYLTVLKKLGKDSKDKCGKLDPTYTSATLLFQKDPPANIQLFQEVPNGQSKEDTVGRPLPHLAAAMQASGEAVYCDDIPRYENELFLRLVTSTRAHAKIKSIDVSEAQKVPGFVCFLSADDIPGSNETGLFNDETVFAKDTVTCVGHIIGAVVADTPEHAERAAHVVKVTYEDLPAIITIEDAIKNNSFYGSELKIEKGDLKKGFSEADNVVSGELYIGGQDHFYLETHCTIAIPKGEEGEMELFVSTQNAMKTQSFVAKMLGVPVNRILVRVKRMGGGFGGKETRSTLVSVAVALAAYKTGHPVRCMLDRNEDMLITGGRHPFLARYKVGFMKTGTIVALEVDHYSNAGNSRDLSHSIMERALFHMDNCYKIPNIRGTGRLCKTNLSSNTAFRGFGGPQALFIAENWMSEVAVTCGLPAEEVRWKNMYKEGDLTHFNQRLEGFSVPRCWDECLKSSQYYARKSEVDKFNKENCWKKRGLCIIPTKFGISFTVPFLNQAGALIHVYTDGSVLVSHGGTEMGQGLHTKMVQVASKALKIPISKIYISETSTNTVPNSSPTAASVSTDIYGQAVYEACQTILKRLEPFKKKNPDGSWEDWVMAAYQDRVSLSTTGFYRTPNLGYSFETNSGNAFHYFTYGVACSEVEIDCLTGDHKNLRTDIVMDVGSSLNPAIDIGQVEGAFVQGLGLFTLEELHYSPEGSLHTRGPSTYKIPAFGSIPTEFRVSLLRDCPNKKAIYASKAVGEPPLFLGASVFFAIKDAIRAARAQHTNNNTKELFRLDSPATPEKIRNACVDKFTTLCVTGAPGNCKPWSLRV

| SMILES | IC50 |
| --- | --- |
| Cc1nc(-c2ccc(OCC(C)C)c(-n3ncnc3C)c2)sc1C(=O)O [compound 14, 4-methyl-2-[3-(5-methyl-1H-1,2,4-triazol-1-yl)-4-(2-methylpropoxy)phenyl]-1,3-thiazole-5-carboxylic acid] | 1 to 5 nM |
| Cc1nc(-c2ccc(Oc3ccccc3)c(-n3cncn3)c2)sc1C(=O)O [Compound No. 15] | > 10 nM |
| Cc1nc(-c2ccc(Oc3ccc(F)cc3F)c(-n3cnnn3)c2)sc1C(=O)O [compound 42, 2-[4-(2,4-difluorophenoxy)-3-(1H-1,2,3,4-tetrazol-1-yl)phenyl]-4-methyl-1,3-thiazole-5-carboxylic acid] | 1 to 5 nM |
| Cc1ncn(-c2cc(-c3nc(C)c(C(=O)O)s3)ccc2OCC(C)C)n1 [compound 12, 4-methyl-2-[3-(3-methyl-1H-1,2,4-triazol-1-yl)-4-(2-methylpropoxy)phenyl]-1,3-thiazole-5-carboxylic acid] | 1 to 5 nM |
| Cc1nc(-c2ccc(Oc3ccccc3)c(-n3ccnc3)c2)sc1C(=O)O [Compound No. 7, 2-[3-(1H-imidazol-1-yl)-4-phenoxyphenyl]-4-methyl-1,3-thiazole-5-carboxylic acid] | > 10 nM |
| Cc1cc(F)ccc1Oc1ccc(-c2nc(C)c(C(=O)O)s2)cc1-n1cnnn1 [compound 41, 2-[4-(4-fluoro-2-methylphenoxy)-3-(1H-1,2,3,4-tetrazol-1-yl)phenyl]-4-methyl-1,3-thiazole-5-carboxylic acid] | 1 to 5 nM |
| COc1ccccc1Oc1ccc(-c2nc(C)c(C(=O)O)s2)cc1-n1cnnn1 [compound 35, 2-[4-(2-methoxyphenoxy)-3-(1H-1,2,3,4-tetrazol-1-yl)phenyl]-4-methyl-1,3-thiazole-5-carboxylic acid] | 1 to 5 nM |
| Cc1nc(-c2ccc(OCC(C)C)c(-n3cncn3)c2)sc1C(=O)O [compound 13, 4-methyl-2-[4-(2-methylpropoxy)-3-(1H-1,2,4-triazol-1-yl)phenyl]-1,3-thiazole-5-carboxylic acid] | 1 to 5 nM |
| CC(C)Oc1ccc(-c2ncc(C(=O)O)s2)cc1-n1cnnn1 [compound 31, 2-[4-(propan-2-yloxy)-3-(1H-1,2,3,4-tetrazol-1-yl)phenyl]-1,3 thiazole-5-carboxylic acid] | 1 to 5 nM |
| Cc1nc(-c2ccc(OC(C)C)c(-n3ccnn3)c2)sc1C(=O)O [Compound No. 16, 4-methyl-2-[4-(propan-2-yloxy)-3-(1H-1,2,3-triazol-1-yl)phenyl]-1,3-thiazole-5-carboxylic acid] | 1 to 5 nM |
| Cc1nc(-c2ccc(OCC3CCCC3)c(-n3ccnc3)c2)sc1C(=O)O [Compound No. 4, 2-[4-(cyclopentylmethoxy)-3-(1H-imidazol-1-yl)phenyl]-4-methyl-1,3-thiazole-5-carboxylic acid] | 5 to 10 nM |
| Cc1nc(-c2ccc(Oc3ccccc3F)c(-n3ccnc3)c2)sc1C(=O)O [Compound No. 8, 2-[4-(2-fluorophenoxy)-3-(1H-imidazol-1-yl)phenyl]-4-methyl-1,3-thiazole-5-carboxylic acid] | > 10 nM |
| Cc1ccc(Sc2ccc(-c3nc(C)c(C(=O)O)s3)cc2-n2cnnn2)cc1 [compound 51, 4-methyl-2-{4-[(4-methylphenyl)sulfanyl]-3-(1H-1,2,3,4-tetrazol-1-yl)phenyl}-1,3-thiazole 5-carboxylic acid] | 1 to 5 nM |
| Cc1nc(-c2ccc(OCC(C)C)c(-n3ccnc3C)c2)sc1C(=O)O [compound 9, 4-methyl-2-[3-(2-methyl-1H-imidazol-1-yl)-4-(2-methylpropoxy)phenyl]-1,3-thiazole-5-carboxylic acid] | 1 to 5 nM |
| Cc1nc(-c2ccc(OCC(C)C)c(-n3ccnn3)c2)sc1C(=O)O [compound 17, 4-methyl-2-[4-(2-methylpropoxy)-3-(1H-1,2,3-triazol-1-yl)phenyl]-1,3-thiazole-5-carboxylic acid] | 1 to 5 nM |
| CC(C)COc1ccc(-c2ncc(C(=O)O)s2)cc1-n1ccnn1 [compound 21, 2-[4-(2-methylpropoxy)-3-(1H-1,2,3-triazol-1-yl)phenyl]-1,3-thiazole-5-carboxylic acid] | 1 to 5 nM |
| CC(C)Oc1ccc(-c2ncc(C(=O)O)s2)cc1-n1ccnn1 [compound 20, 2-[4-(propan-2-yloxy)-3-(1H-1,2,3-triazol-1-yl)phenyl]-1,3-thiazole-5-carboxylic acid] | 1 to 5 nM |
| Cc1nc(-c2ccc(Oc3cc(F)ccc3F)c(-n3cnnn3)c2)sc1C(=O)O [compound 47, 2-[4-(2,5-difluorophenoxy)-3-(1H-1,2,3,4-tetrazol-1-yl)phenyl]-4-methyl-1,3-thiazole-5-carboxylic acid] | 1 to 5 nM |
| Cc1ccc(F)c(Oc2ccc(-c3nc(C)c(C(=O)O)s3)cc2-n2cnnn2)c1 [compound 48, 2-[4-(2-fluoro-5-methylphenoxy)-3-(1H-1,2,3,4-tetrazol-1-yl)phenyl]-4-methyl-1,3-thiazole-5-carboxylic acid] | 1 to 5 nM |
| Cc1nc(-c2ccc(OCC(C)C)c(-n3ccnc3)c2)sc1C(=O)O [Compound No. 1, 2-[3-(1H-imidazol-1-yl)-4-(2-methylpropoxy)phenyl]-4-methyl-1,3-thiazole-5-carboxylic acid] | 1 to 5 nM |
| CC(C)COc1ccc(-c2ncc(C(=O)O)s2)cc1-n1cnnn1 [compound 32, 2-[4-(2-methylpropoxy)-3-(1H-1,2,3,4-tetrazol-1-yl)phenyl]-1,3 thiazole-5-carboxylic acid] | 1 to 5 nM |
| Cc1cc(F)cc(Oc2ccc(-c3nc(C)c(C(=O)O)s3)cc2-n2cnnn2)c1 [compound 46, 2-[4-(3-fluoro-5-methylphenoxy)-3-(1H-1,2,3,4-tetrazol-1-yl)phenyl]-4-methyl-1,3-thiazole-5-carboxylic acid] | 1 to 5 nM |
| Cc1nc(-c2ccc(OCC(C)(C)C)c(-n3ccnc3)c2)sc1C(=O)O [Compound No. 2, 2-[4-(2,2-dimethylpropoxy)-3-(1H-imidazol-1-yl)phenyl]-4-methyl-1,3-thiazole-5-carboxylic acid] | 5 to 10 nM |
| Cc1nc(-c2ccc(OCC(C)C)c(-n3nnnc3C)c2)sc1C(=O)O [compound 10, 4-methyl-2-[3-(5-methyl-1H-1,2,3,4-tetrazol-1-yl)-4-(2-methylpropoxy)phenyl]-1,3-thiazole-5-carboxylic acid] | 5 to 10 nM |
| Cc1nc(-c2ccc(OCC3CCC3)c(-n3ccnc3)c2)sc1C(=O)O [Compound No. 3, 2-[4-(cyclobutylmethoxy)-3-(1H-imidazol-1-yl)phenyl]-4-methyl-1,3-thiazole-5-carboxylic acid] | 5 to 10 nM |

The remaining lines, values ahead:

| IC50 | SMILES |
| --- | --- |
| 1 to 5 nM | Cc1ccccc1Oc1ccc(-c2nc(C)c(C(=O)O)s2)cc1-n1cnnn1 [compound 44, 2-[4-(2-methylphenoxy)-3-(1H-1,2,3,4-tetrazol-1-yl)phenyl]-4-methyl-1,3-thiazole-5-carboxylic acid] |
| 1 to 5 nM | Cc1nc(-c2ccc(OCC(C)(C)O)c(-n3cnnn3)c2)sc1C(=O)O [Compound No. 30, 2-[4-(2-hydroxy-2-methylpropoxy)-3-(1H-1,2,3,4-tetrazol-1-yl)phenyl]-4-methyl-1,3-thiazole-5-carboxylic acid] |
| 1 to 5 nM | Cc1ccc(Oc2ccc(-c3nc(C)c(C(=O)O)s3)cc2-n2cnnn2)cc1 [compound 45, 2-[4-(4-methylphenoxy)-3-(1H-1,2,3,4-tetrazol-1-yl)phenyl]-4-methyl-1,3-thiazole-5-carboxylic acid] |
| 1 to 5 nM | Cc1nc(-c2ccc(N3CCCC3)c(-n3cnnn3)c2)sc1C(=O)O [Compound No. 53, 4-methyl-2-[4-(pyrrolidin-1-yl)-3-(1H-1,2,3,4-tetrazol-1-yl)phenyl]-1,3-thiazole 5-carboxylic acid] |
| 1 to 5 nM | Cc1cccc(Oc2ccc(-c3nc(C)c(C(=O)O)s3)cc2-n2cnnn2)c1 [compound 38, 2-[4-(3-methylphenoxy)-3-(1H-1,2,3,4-tetrazol-1-yl)phenyl]-4-methyl-1,3-thiazole-5-carboxylic acid] |
| 1 to 5 nM | Cc1nc(-c2ccc(OCC(C)(C)C)c(-n3cnnn3)c2)sc1C(=O)O [compound 26, 2-[4-(2,2-dimethylpropoxy)-3-(1H-1,2,3,4-tetrazol-1-yl)phenyl]-4-methyl-1,3-thiazole-5-carboxylic acid] |
| 1 to 5 nM | Cc1nc(-c2ccc(OCC3CCC3)c(-n3ccnn3)c2)sc1C(=O)O [compound 19, 2-[4-(cyclobutylmethoxy)-3-(1H-1,2,3-triazol-1-yl)phenyl]-4-methyl-1,3-thiazole-5-carboxylic acid] |
| 1 to 5 nM | Cc1nc(-c2ccc(OCC3CCC3)c(-n3cnnn3)c2)sc1C(=O)O [compound 27, 2-[4-(cyclobutylmethoxy)-3-(1H-1,2,3,4-tetrazol-1-yl)phenyl]-4-methyl-1,3-thiazole-5-carboxylic acid] |
| 1 to 5 nM | Cc1nc(-c2ccc(OC3CCCC3)c(-n3cnnn3)c2)sc1C(=O)O [compound 28, 2-[4-(cyclopentyloxy)-3-(1H-1,2,3,4-tetrazol-1-yl)phenyl]-4-methyl-1,3-thiazole-5-carboxylic acid] |
| 1 to 5 nM | Cc1nc(-c2ccc(Oc3ccccc3F)c(-n3cnnn3)c2)sc1C(=O)O [compound 34, 2-[4-(2-fluorophenoxy)-3-(1H-1,2,3,4-tetrazol-1-yl)phenyl]-4-methyl-1,3-thiazole-5-carboxylic acid] |
| 1 to 5 nM | Cc1nc(-c2ccc(OCC(C)CO)c(-n3cnnn3)c2)sc1C(=O)O (stereo not drawn) [Compound No. 29, 2-[4-(3-hydroxy-2-methylpropoxy)-3-(1H-1,2,3,4-tetrazol-1-yl)phenyl]-4-methyl-1,3-thiazole-5-carboxylic acid] |
